Patent US20240287042A1, “NOVEL COMPOUND HAVING INHIBITORY ACTIVITY AGAINST PENDRIN, AND PHARMACEUTICAL USES THEREOF” (UIF (University Industry Foundation), Yonsei University, priority 2021, published 2024)

How the values were obtained:
CHO-K1 cells = assay: Cell viability, MTS colorimetric assay; type: cell-based, Chinese hamster; conditions: 24 hours; for Cytotoxicity: 30 μM; for Change in survival rate: 100 μM
Experimental: Chinese hamster ovary (CHO)-K1 cells were cultured in DMEM medium containing 10% fetal bovine serum (FBS), 100 units/ml of penicillin and 100 μg/ml streptomycin.
The cell viability was measured using the CellTiter 96® AQueous One Solution cell proliferation assay kit (Promega, Madison, WI, USA). CHO-K1 cells were cultured with medium supplemented with 10% FBS in 96-well plates for 24 hours, and then compounds or vehicle were treated in the medium, and after 24 hours, the medium was completely removed, and the MTS assay was performed as recommended in the supplier's protocol. The absorbance of Formazan was measured at a wavelength of 490 nm using an Infinite M200 microplate reader (Tecan, Austria).

human WT CFTR = molecular target: T1, human WT CFTR (Homo sapiens, UniProt P13569); assay: CFTR I− transport activity, YFP fluorescence, forskolin-activated; type: cell-based; conditions: for Effect on CFTR activity: 100 μM
T1 construct: expressed in transfected cells
T1 sequence (P13569 whole entry): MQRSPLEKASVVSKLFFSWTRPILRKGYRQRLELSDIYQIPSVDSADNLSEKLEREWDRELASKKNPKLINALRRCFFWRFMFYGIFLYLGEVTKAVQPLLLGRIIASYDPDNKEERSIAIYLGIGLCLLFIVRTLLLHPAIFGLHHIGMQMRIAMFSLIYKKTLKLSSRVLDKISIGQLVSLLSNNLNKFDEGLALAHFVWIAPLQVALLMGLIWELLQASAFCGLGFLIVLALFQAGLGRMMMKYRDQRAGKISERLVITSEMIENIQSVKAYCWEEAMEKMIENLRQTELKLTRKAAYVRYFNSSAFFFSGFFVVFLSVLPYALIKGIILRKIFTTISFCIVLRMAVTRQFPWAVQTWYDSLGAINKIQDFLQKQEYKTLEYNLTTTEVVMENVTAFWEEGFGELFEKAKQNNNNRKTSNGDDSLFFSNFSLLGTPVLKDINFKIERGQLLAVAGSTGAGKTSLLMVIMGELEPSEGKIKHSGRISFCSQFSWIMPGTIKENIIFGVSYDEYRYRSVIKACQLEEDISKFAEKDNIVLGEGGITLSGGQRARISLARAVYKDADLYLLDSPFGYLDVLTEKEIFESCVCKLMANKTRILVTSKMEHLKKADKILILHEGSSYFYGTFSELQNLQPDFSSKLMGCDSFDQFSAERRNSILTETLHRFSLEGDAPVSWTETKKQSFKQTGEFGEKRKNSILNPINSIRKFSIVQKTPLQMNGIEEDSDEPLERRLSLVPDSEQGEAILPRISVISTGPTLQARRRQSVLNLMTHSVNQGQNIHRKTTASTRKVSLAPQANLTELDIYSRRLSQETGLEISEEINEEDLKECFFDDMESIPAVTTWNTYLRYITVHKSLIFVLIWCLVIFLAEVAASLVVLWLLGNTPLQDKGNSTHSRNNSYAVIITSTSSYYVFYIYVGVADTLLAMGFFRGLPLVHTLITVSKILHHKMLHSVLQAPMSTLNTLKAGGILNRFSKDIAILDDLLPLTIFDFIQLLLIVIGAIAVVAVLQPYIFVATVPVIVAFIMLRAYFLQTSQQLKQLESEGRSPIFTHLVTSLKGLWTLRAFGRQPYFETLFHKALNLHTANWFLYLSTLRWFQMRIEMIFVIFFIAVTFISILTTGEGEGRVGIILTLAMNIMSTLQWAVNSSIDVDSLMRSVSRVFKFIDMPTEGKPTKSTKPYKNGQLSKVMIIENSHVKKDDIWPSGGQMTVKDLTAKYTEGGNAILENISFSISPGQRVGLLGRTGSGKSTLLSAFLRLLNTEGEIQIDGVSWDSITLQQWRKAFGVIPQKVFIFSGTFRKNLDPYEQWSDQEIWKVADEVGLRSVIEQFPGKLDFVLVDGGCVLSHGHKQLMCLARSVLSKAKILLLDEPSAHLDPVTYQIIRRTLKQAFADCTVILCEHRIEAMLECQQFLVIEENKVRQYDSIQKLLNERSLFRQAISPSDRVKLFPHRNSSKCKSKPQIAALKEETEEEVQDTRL
Experimental: Chinese hamster ovary (CHO)-K1 cells or LN-215 cells were cultured in DMEM medium containing 10% fetal bovine serum (FBS), 100 units/ml of penicillin and 100 μg/ml streptomycin. CHO-K1 cells or LN-215 cells were stably transfected with pcDNA3.1 encoding the halide sensor YFP-H148Q/I152L/F46L and human wild-type (WT)-SLC26A9. Fisher rat thyroid (FRT) cells stably transfected with YFP-H148Q/I152L/F46L and human wild type (WT)-CFTR or human wild type (WT)-ANO1 were cultured in DMEM/F-12 medium containing 10% fetal bovine serum (FBS), 100 units/ml of penicillin, and 100 μg/ml of streptomycin.
LN-215 cells expressing human WT SLC26A9 and YFP-F46L/H148Q/I152L, and FRT cells expressing human WT CFTR or ANO1 and YFP-F46L/H148Q/I152L were plated in 96-well microplates at a density of 2×10^4 cells per well, and cultured for 48 hours. […] After culturing at 37° C. for 10 minutes, the 96-well plate was located on the FLUOstar Omega Microplate Reader (BMG Labtech, Ortenberg, Germany) for a fluorescence assay. For assay of the activity of […], fluorescence was recorded continuously (400 ms per point) for 1 second (baseline), whereby each well was assayed individually for SLC26A9-mediated I-influx. Then, 50 μL of NaI-substituted HEPES buffered solution (replacing NaCl with NaI) was added using a liquid injector at 1 second, and YFP fluorescence was recorded for 6 seconds. For assay of the activity of CFTR, fluorescence was recorded continuously (400 ms per point) for 2 seconds (baseline), whereby each well was assayed individually for CFTR-mediated I^− influx. Then, 50 μL of NaI-substituted HEPES buffered solution (replacing NaCl with NaI) was added using a liquid injector at 2 second, and YFP fluorescence was recorded for 8 seconds. For assay of the activity of ANO1, fluorescence was recorded continuously (400 ms per point) for 1 second (baseline), whereby each well was assayed individually for ANO1-mediated I^− influx. […] The initial iodide influx rate was determined from the initial slope of fluorescence by nonlinear regression, after the injection of iodide. […]

| Structure (SMILES) | Cytotoxicity (CHO-K1 cells) | Change in survival rate (CHO-K1 cells) | Effect on CFTR activity (human WT CFTR; Example 14, CHO-K1 cells, FIG. 16) | Effect on CFTR activity (human WT CFTR; FRT-YFP cells, FIG. 3) | inhibition at 100 µM (human WT CFTR; FRT-YFP cells, FIG. 3) |
| --- | --- | --- | --- | --- | --- |
| Cc1ccc2[nH]c(C(=O)O)c(CC(=O)N3CCN(c4c(C)cccc4Cl)CC3)c2c1 [YPI-A4948, 3-(2-(4-(2-Chloro-6-methylphenyl)piperazin-1-yl)-2-oxoethyl)-5-methyl-1H-indole-2-carboxylic acid] | no cytotoxicity | around 10% | almost no effect | almost no effect | – |
| Cc1ccc(C)c(N2CCN(C(=O)Cc3c(C(=O)O)[nH]c4ccc(Cl)cc34)CC2)c1 [YPI-H05, 5-chloro-3-(2-(4-(2,5-dimethylphenyl)piperazin-1-yl-)-2-oxoethyl)-1H-indole-2-carboxylic acid] | no cytotoxicity | around 10% | – | – | ~50% |
